Values of other authors as cited in US6471968B1, “Multifunctional nanodevice platform” (Regents of the University of Michigan, priority 2000, dated 2002).

System: solid tumor models
Conditions: solid tumor models for which cisplatin has no effect

## N.N.[Cl][Pt][Cl] [cisplatin]
  in vivo activity in solid tumor models: no effect
